Test results as given in patent US20100015174A1, “METHOD TO CONTROL DENGUE VIRUSES IN HUMANS BY PICOLINIC ACID AND DERIVATIVES THEREOF” (priority 2008, published 2010).
≈ marks a conversion by molar mass, not a printed value.

Assays:
BVDV Trangie strain = experiment: BVDV virus yield reduction in MDBK cells (immunoperoxidase staining); type: cell-based, Bovine Viral Diarrhea Virus; conditions: 3 days
Procedure: BVDV Trangie strain, a well characterized non-cytopathic Australian isolate, was used in this study. The virus was cultured in MDBK cells (ATCC), and titred by immunoperoxidase staining.
80% confluent MDBK cells were infected with BVDV at a moi of 0.01 at 37° C. for 1 h. After viral inoculums was removed, Infected cells were washed with PBS and then incubated with culture medium containing PA at concentrations of 0, 10, 100, 250, 500, and 1000 ug/mL or FA at concentrations of 0, 1, 10, 30, 60, and 100 ug/mL at 37° C. for 3 days. The culture medium was then collected and stored at −70° C. The cells were harvested by one frozen/thawed cycle and centrifugation to pellet debris. The supernatant was collected and stored at −70° C.
PA of FA-treated cultures were 10-fold serially diluted, 50 uL of each dilution was added to 80% confluent MDBK cells in a 96-well plate, and incubated at 37° C. for 1 h. The innoculum was removed by washing with PBS once. The Infected cells were covered with 200 uL of 0.5% methylcellulose in culture medium and incubated at 37° C. for 2 days. After washing with PBS, the cells were fixed with 200 uL of 5% formalin in PBS for 10 min at room temperature. Subsequently, they were washed with 0.05% Tween −20/dH2O three times. Then, the cells were incubated with 50 uL mixture of three monoclonal antibodies against BVDV NS3 for 80 min at 37° C. in a humidified box. The cells were then washed as above and incubated with 50 uL of rabbit anti-mouse IgG Peroxidase-conjugate (DAKO) diluted 1:200 in 1% gelatin/PBS for 90 min at 37° C. in a humidified box. After final washes as described above, 200 uL of 3-amino-9-ethyl-carbazole was added to each well and incubated at room temperature for 30 min until the cells were stained.
The BVDV closely resembles HCV persistent Infection. After Infection with BVDV cultured MBDK were treated with different concentrations of PA or FA for 3 days. The antiviral effect was determined by virus yield reduction assays (i.e. staining using monoclonal antibodies against NS3, or titration of intracellular and extracellular virus by immunoperoxidase staining.

[1] = tested on: certain lymphomas, and viral diseases such as Herpes simplex labialis, herpes zoster and papilloma viruses; experiment: Systemic picolinic acid capsules in humans; type: in vivo; conditions: 00 gelatin capsules at 500 mg per capsule
Excerpt: A systemic preparation of picolinic acid, its derivatives or analogs, containing approximately 1% to 100% active ingredient, may be administered orally, intravenously, intramuscularly or by any acceptable route for the treatment of viral systemic infections such as Dengue. […] Likewise, an injectable form may be prepared.

J2 retrovirus = conditions: GG2EE transformed macrophages; cited from earlier work

CCCCc1ccc(C(=O)O)nc1 [FA, fusaric acid]
BVDV virus yield (BVDV Trangie strain; FA 1 μg/ml): 2.4 × 10^5 (pfu/ml)
BVDV virus yield, % of control (BVDV Trangie strain; FA 1 μg/ml): 80.0 % of control
BVDV virus yield (BVDV Trangie strain; FA 10 μg/ml): 1.8 × 10^5 (pfu/ml)
BVDV virus yield, % of control (BVDV Trangie strain; FA 10 μg/ml): 60.0 % of control
BVDV virus yield (BVDV Trangie strain; FA 30 μg/ml): 2.5 × 10^5 (pfu/ml)
BVDV virus yield, % of control (BVDV Trangie strain; FA 30 μg/ml): 83.3 % of control
BVDV virus yield (BVDV Trangie strain; FA 60 μg/ml): 1.5 × 10^5 (pfu/ml)
BVDV virus yield, % of control (BVDV Trangie strain; FA 60 μg/ml): 50.0 % of control
activity against BVDV (BVDV Trangie strain; MDBK cells): active

O=C(O)c1ccccn1 [PA, picolinic acid]
reduction of BVDV virus yield (BVDV Trangie strain; 250 ug/mL): 76%
EC50 (BVDV Trangie strain; Bovine viral diarrhea virus isolates and strains, 72 h, MDBK cells, read-out: EC50 against BVDV): 60 µg/mL (≈ 487 µM)
activity against BVDV (BVDV Trangie strain; MDBK cells): active
BVDV virus yield (BVDV Trangie strain; PA 10 μg/ml): 3.2 × 10^5 (pfu/ml)
BVDV virus yield, % of control (BVDV Trangie strain; PA 10 μg/ml): 78.0 % of control
BVDV virus yield (BVDV Trangie strain; PA 100 μg/ml): 2.5 × 10^5 (pfu/ml)
BVDV virus yield, % of control (BVDV Trangie strain; PA 100 μg/ml): 61.0 % of control
BVDV virus yield (BVDV Trangie strain; PA 250 μg/ml): 1.0 × 10^5 (pfu/ml)
BVDV virus yield, % of control (BVDV Trangie strain; PA 250 μg/ml): 24.4 % of control
BVDV virus yield (BVDV Trangie strain; PA 500 μg/ml): 0.35 × 10^5 (pfu/ml)
BVDV virus yield, % of control (BVDV Trangie strain; PA 500 μg/ml): 8.5 % of control
control of certain lymphomas and viral diseases in humans [1]: effective
J2 retrovirus expression (J2 retrovirus): not affected
